According to ChEMBL document CHEMBL1909046, “DrugMatrix in vitro pharmacology data”:

Experiments:
[1] = target: T1, Muscarinic acetylcholine receptor M2 (Homo sapiens, UniProt P08172); type: cell membranes, CHO-K1, Membrane; conditions: cho-k1; note: in other assays of this panel Not Active means under 50% inhibition at 10 µM
T1 sequence (P08172 whole entry): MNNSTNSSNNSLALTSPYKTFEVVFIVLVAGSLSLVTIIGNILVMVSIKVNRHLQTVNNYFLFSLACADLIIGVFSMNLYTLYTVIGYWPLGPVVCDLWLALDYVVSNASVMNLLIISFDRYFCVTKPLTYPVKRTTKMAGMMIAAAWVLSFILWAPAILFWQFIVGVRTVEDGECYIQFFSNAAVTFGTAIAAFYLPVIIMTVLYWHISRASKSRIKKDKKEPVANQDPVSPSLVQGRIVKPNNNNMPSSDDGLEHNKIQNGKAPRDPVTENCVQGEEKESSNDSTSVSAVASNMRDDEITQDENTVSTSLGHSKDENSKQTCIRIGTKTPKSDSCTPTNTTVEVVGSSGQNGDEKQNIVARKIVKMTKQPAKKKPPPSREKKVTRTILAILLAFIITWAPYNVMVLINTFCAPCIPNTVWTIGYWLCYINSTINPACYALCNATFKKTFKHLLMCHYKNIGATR

Carbonic anhydrase 2 = Carbonic anhydrase 2 (Homo sapiens, UniProt P00918); assay: DRUGMATRIX: Carbonic Anhydrase II enzyme inhibition (substrate: 4-Nitrophenyl acetate (4-NPA)); type: tissue-based, Erythrocyte; conditions: erythrocyte; Not Active = under 50% inhibition at 10 µM
Cytochrome P450 2E1 = Cytochrome P450 2E1 (Homo sapiens, UniProt P05181); conditions: bti-tn-5b1-4; note: in other assays of this panel Not Active means under 50% inhibition at 10 µM
[2] = target: T2, Alpha-2C adrenergic receptor (Homo sapiens, UniProt P18825); assay: DRUGMATRIX: Adrenergic Alpha-2C radioligand binding (ligand: [3H] MK-912); type: cell membranes, Sf9, Membrane
T2 sequence (P18825 whole entry): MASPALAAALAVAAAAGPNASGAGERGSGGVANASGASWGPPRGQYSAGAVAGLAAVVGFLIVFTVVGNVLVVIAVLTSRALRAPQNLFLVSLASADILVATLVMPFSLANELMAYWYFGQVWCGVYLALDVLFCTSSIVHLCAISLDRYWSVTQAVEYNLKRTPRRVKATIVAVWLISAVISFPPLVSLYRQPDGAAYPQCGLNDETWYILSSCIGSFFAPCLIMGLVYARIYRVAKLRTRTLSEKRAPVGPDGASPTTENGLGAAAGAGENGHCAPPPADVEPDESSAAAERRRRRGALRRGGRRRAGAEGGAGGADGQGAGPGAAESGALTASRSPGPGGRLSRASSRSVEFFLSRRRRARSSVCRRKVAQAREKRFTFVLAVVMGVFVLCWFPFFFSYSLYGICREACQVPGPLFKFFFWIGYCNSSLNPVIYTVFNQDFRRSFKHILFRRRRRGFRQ

Cytochrome P450 2C19 = Cytochrome P450 2C19 (Homo sapiens, UniProt P33261); conditions: bti-tn-5b1-4; note: in other assays of this panel Not Active means under 50% inhibition at 10 µM
[3] = target: Mitogen-activated protein kinase 3 (Homo sapiens, UniProt P27361); assay: DRUGMATRIX: Protein Serine/Threonine Kinase, ERK1 enzyme inhibition (substrate: Myelin Basic Protein); parameters: species or system Escherichia coli; conditions: Not Active = under 50% inhibition at 10 µM
[4] = target: Matrix metalloproteinase-9 (Homo sapiens, UniProt P14780); assay: biochemical; type: cell-based;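 note: inhibition of isolated MMP-9 enzyme activity toward a synthetic peptide substrate, from the DrugMatrix protease screening panel; in other assays of this panel Not Active means under 50% inhibition at 10 µM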
Chain of Matrix metalloproteinase-9 (P14780 whole entry): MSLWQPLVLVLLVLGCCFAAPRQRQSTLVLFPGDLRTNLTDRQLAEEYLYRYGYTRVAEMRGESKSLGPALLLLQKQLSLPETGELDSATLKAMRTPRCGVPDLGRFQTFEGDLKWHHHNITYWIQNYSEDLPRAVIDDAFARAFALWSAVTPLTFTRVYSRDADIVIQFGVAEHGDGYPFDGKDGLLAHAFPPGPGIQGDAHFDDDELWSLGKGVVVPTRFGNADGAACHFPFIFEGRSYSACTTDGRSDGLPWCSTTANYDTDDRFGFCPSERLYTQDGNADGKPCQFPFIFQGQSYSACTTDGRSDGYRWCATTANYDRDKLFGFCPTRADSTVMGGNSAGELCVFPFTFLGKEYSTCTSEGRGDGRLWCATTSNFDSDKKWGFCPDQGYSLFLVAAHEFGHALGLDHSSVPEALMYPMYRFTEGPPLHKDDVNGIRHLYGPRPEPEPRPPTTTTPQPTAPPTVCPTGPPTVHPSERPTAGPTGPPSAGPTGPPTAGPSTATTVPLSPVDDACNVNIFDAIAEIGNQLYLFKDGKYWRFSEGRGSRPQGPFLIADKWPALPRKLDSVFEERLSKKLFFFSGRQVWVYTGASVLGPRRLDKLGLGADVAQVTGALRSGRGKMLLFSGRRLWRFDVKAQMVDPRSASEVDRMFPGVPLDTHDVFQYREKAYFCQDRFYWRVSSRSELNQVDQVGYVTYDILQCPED

Chain of Cytochrome P450 2C19 (P33261 whole entry): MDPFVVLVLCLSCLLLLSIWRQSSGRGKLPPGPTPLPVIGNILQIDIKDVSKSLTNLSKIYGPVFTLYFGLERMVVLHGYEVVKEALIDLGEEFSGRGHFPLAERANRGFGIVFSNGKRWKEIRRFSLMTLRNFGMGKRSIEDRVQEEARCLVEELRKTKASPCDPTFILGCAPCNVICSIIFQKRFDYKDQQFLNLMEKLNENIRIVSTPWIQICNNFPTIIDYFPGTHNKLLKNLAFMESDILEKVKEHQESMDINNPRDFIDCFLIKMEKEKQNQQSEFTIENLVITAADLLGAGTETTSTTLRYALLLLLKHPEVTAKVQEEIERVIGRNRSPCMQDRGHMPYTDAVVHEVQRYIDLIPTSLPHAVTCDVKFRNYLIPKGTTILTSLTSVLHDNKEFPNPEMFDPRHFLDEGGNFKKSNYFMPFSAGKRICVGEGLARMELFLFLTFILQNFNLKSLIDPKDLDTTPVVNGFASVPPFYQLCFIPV
Chain of Cytochrome P450 2E1 (P05181 whole entry): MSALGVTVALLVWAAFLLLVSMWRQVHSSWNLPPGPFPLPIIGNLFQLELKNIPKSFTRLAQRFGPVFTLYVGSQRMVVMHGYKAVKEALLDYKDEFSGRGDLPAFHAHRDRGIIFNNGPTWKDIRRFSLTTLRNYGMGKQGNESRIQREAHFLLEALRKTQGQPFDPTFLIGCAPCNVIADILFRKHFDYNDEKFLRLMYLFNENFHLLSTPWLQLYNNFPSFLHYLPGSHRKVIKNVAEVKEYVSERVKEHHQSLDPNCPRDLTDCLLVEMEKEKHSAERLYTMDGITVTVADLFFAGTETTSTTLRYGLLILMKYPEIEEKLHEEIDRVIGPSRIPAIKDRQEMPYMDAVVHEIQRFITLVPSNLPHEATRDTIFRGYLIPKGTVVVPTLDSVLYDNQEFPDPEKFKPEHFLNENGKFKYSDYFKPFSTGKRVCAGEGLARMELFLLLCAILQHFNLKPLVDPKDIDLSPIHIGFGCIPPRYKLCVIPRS
Chain of Mitogen-activated protein kinase 3 (P27361 whole entry): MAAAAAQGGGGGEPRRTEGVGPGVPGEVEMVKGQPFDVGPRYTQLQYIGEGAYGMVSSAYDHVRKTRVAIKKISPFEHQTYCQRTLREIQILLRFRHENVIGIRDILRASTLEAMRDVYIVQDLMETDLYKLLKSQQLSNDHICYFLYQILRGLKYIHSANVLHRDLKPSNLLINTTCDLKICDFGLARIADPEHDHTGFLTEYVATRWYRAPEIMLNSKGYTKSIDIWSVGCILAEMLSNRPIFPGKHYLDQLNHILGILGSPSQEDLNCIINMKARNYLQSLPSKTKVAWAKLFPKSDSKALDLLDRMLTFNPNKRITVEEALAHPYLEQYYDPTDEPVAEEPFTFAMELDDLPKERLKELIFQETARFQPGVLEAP

Molecule | IC50 [1] | IC50 (Carbonic anhydrase 2) | IC50 (Cytochrome P450 2E1) | Ki (Cytochrome P450 2E1) | IC50 ([2]; sf9) | IC50 (Cytochrome P450 2C19) | Ki (Cytochrome P450 2C19) | IC50 [3] | IC50 [4] | IC50 ([2]; read-out: IC50) | Ki ([2]; read-out: Ki) | IC50 ([3]; read-out: IC50) | Ki [1] | Ki (Carbonic anhydrase 2) | Ki ([2]; sf9) | Ki [3] | Ki [4] | IC50 ([2]; sf9, read-out: IC50) | Ki ([2]; sf9, read-out: Ki)
CC(C)(C)NC[C@H](O)COc1nsnc1N1CCOCC1 [TIMOLOL] | Not Active | Not Active | Not Active | Not Active | Not Active | Not Active | Not Active | Not Active | Not Active | – | – | – | – | – | – | – | – | – | –
C[C@@H]1C[C@H]2[C@@H]3CCC4=CC(=O)C=C[C@]4(C)C3=CC[C@]2(C)[C@H]1C(=O)CN1CCN(c2cc(N3CCCC3)nc(N3CCCC3)n2)CC1 [TIRILAZAD] | Not Active | Not Active | Not Active | Not Active | – | Not Active | Not Active | – | Not Active | 7.9 µM | 1150 nM | 16.3 µM | – | – | – | – | – | – | –
NC[C@H]1O[C@H](O[C@H]2[C@H](O)[C@@H](O[C@H]3O[C@H](CO)[C@@H](O)[C@H](N)[C@H]3O)[C@H](N)C[C@@H]2N)[C@H](N)C[C@@H]1O [TOBRAMYCIN] | Not Active | Not Active | Not Active | Not Active | Not Active | Not Active | Not Active | Not Active | Not Active | – | – | – | – | – | – | – | – | – | –
O=C(O)C(Cl)(Cl)Cl [TRICHLOROACETIC ACID] | Not Active | Not Active | Not Active | Not Active | Not Active | Not Active | Not Active | Not Active | Not Active | – | – | – | – | – | – | – | – | – | –
CC(=O)O[C@H]1C[C@@H]2CC[C@@H]3[C@H](CC[C@@]4(C)[C@H]3C[C@H]([N+]3(C)CCCCC3)[C@@H]4OC(C)=O)[C@@]2(C)C[C@@H]1N1CCCCC1.[Br-] [VECURONIUM BROMIDE] | Not Active | Not Active | Not Active | Not Active | Not Active | Not Active | Not Active | Not Active | Not Active | – | – | – | – | – | – | – | – | – | –
COc1cc(C(=O)NS(=O)(=O)c2ccccc2C)ccc1Cc1cn(C)c2ccc(NC(=O)OC3CCCC3)cc12 [ZAFIRLUKAST] | Not Active | Not Active | Not Active | Not Active | Not Active | Not Active | Not Active | – | Not Active | – | – | 4.38 µM | – | – | – | – | – | – | –
Cc1cn([C@H]2C[C@H](N=[N+]=[N-])[C@@H](CO)O2)c(=O)[nH]c1=O [ZIDOVUDINE] | Not Active | Not Active | Not Active | Not Active | Not Active | Not Active | Not Active | Not Active | Not Active | – | – | – | – | – | – | – | – | – | –
STANNOUS FLUORIDE | Not Active | Not Active | Not Active | Not Active | Not Active | Not Active | Not Active | Not Active | Not Active | – | – | – | Not Active | Not Active | Not Active | Not Active | Not Active | – | –
THIMEROSAL | Not Active | Not Active | Not Active | Not Active | – | Not Active | Not Active | – | Not Active | – | – | 0.774 µM | Not Active | Not Active | – | – | Not Active | 5.04 µM | 732 nM
